The values below come from ChEMBL document CHEMBL3856192, “Aroylhydrazone iron chelators: Tuning antioxidant and antiproliferative properties by hydrazide modifications” (Eur J Med Chem, 2016).

Data set [1] in a line: Iron chelating activity assessed as Fe2+-compound complex formation at 5 uM measured for 360 secs by calcein based fluorescence assay relative to salicylaldehyde isonicotinoyl hydrazone. Conditions: 0.1 h; call rule not given here. Type of data set: physicochemical.
Data set [2] deals with MCF7. As to the kind of experiment: Induction of transferrin labeled 59Fe mobilization in human MCF7 cells assessed as cellular 59Fe released at 25 uM after 3 hrs by gamma scintillation counting analysis (reference value: 11%). It counts as functional.
Data set [3] deals with MCF7. As to the kind of experiment: Inhibition of 59Fe uptake in human MCF7 cells labeled with 59Fe transferrin at 25 uM after 3 hrs relative to control. Type of data set: functional. Conditions: MCF7, 3 h.
A short description of data set [4]: Cytotoxicity against rat H9c2 cells assessed as decrease in cell viability after 72 hrs by neutral red staining based assay. It counts as toxicity.
Data set [5] in a line: Cytotoxicity against human MCF7 cells assessed as decrease in cell viability after 72 hrs by neutral red staining based assay. It counts as functional. Conditions: MCF7, 72 h.
Data set [6] is described as follows: Cytotoxicity against human HL60 cells assessed as decrease in cell viability after 72 hrs by MTT assay. It counts as functional, cell-based. To be noted: HL-60, 72 h. For orientation: Tetrazolium dyes change colour on reduction, which living cells bring about.
In data set [7] the test system is H9c2. As to the kind of experiment: Selectivity index, ratio of IC50 for rat H9c2 cells to IC50 for human MCF7 cells. Type of data set: functional.
Data set [8] concerns H9c2. As to the kind of experiment: Selectivity index, ratio of IC50 for rat H9c2 cells to IC50 for human HL60 cells. Type of data set: functional.
Data set [9] in a line: Stability in rabbit plasma assessed as parent compound remaining at 100 uM after 10 hrs by HPLC analysis. It counts as ADME, cell-free, Oryctolagus cuniculus. To be noted: read-out: Stability.
A short description of data set [10]: Iron chelating activity assessed as Fe3+-compound complex-induced antioxidant activity by measuring ascorbate oxidation level at iron binding equivalent of 3 measured after 10 to 40 mins in presence of 500 uM of citrate relative to control. It counts as physicochemical.
Data set [11] concerns H9c2. The experiment in a line: Protection against H202-induced oxidative injury in rat H9c2 cells assessed as increase in cell viability after 24 hrs by neutral red staining based assay. It counts as functional. Conditions: H9c2, 24 h.
In data set [12] the test system is H9c2. The experiment in a line: Protection against t-BHP-induced oxidative injury in rat H9c2 cells assessed as increase in cell viability incubated for 10 mins followed by stimulation with t-BHP for 24 hrs by neutral red staining based assay. It counts as functional.
A short description of data set [13]: Iron chelating activity assessed as Fe3+-compound complex-induced antioxidant activity by measuring decrease in ascorbate oxidation level at iron binding equivalent of 3 measured after 10 to 40 mins in presence of 100 uM of citrate relative to control. It counts as physicochemical.
Data set [14] concerns H9c2. The experiment in a line: Selectivity index, ratio of IC50 for rat H9c2 cells to EC50 for rat H9c2 cells. Type of data set: functional.
Data set [15] in a line: Drug uptake in human SK-N-MC cells by beta scintillation counting analysis. Type of data set: ADME, cell-based.
Data set [16] is described as follows: Antiproliferative activity against human SK-N-MC cells after 22 to 72 hrs by MTT assay. Type of data set: functional, cell-based.
The nature of data set [17]: Antiproliferative activity against rat L8 cells after 22 to 72 hrs by MTT assay. It counts as cell-based.
The nature of data set [18]: Antiproliferative activity against HUVEC after 22 to 72 hrs by MTT assay. It counts as cell-based. Conditions: Homo sapiens.
In another data set the test system is SK-N-MC. As to the kind of experiment: Selectivity index, ratio of IC50 for HUVEC to IC50 for human SK-N-MC cells.
Data set [19] is described as follows: Selectivity index, ratio of IC50 for rat L8 cells to IC50 for human SK-N-MC cells. Type of data set: functional.
Data set [20] in a line: Iron chelating activity assessed as Fe3+-compound complex-induced antioxidant activity by measuring ascorbate oxidation level at iron binding equivalent of 0.1 measured after 10 to 40 mins in presence of 500 uM of citrate relative to control. It counts as physicochemical.

For the compound `CC/C(=N\NC(=O)c1ccc(-c2ccccc2)cc1)c1ccccc1O`, the results for the Activity (in [1]; in the data set with MCF7 [2]) were 84 to 109% and 51%, respectively. This compound displayed an inhibition at 25 µM in the data set with MCF7 [3] of 17 to 61%. The IC50 at 72 h in [4] is greater than 100 µM. Further, the half-inhibitory concentration (IC50) in [5] and in data set [6] was 1.3 µM throughout. For the same compound, the “Ratio IC50” value in the data set with H9c2 [7] and in the data set on H9c2 [8] was greater than 78 each time. In data set [9], the remaining at 10 h, 100 µM was determined as 41%.

For the compound `CC/C(=N\NC(=O)c1cccnc1)c1ccccc1O`, the Activity was 84 to 109% in [1], 50 - 56% with MCF7 [2] and 10 to 44% in data set [10]. Further, in the data set with MCF7 [3], the inhibition at 25 µM was in the range of 17 to 61%. Besides, the EC50 in the data set with H9c2 [11] was found to be 30 µM. For the same compound, in data set [4], the 50% inhibitory concentration (IC50) at 72 h is 7.1 µM. The half-maximal inhibitory concentration (IC50) in data set [5] amounted to 5 µM; in [6], 4.9 µM. Moreover, the “Ratio IC50” value in the data set on H9c2 [7] is 1.4; with H9c2 [8], 1.5.

`C/C(=N\NC(=O)c1ccncc1)c1ccccc1O`: in data set [4], the IC50 at 72 h stood at 12.6 µM. Further, the concentration giving a half-maximal response (EC50) in the data set on H9c2 [12] came to 11.4 µM. In data set [9], the remaining at 10 h, 100 µM was found to be 26%.

Take `CC/C(=N\NC(=O)c1ccnnc1)c1ccccc1O`: the Activity is 84 to 109% in data set [1], 50 - 56% in the data set on MCF7 [2], 10 to 44% in data set [10] and “Active” in data set [13]. The compound also returned an inhibition at 25 µM with MCF7 [3] of 17 to 61%. Besides, the half-maximal effective concentration (EC50) in the data set on H9c2 [11] amounted to 25 µM. Also, in data set [4], the IC50 at 72 h was greater than 200 µM. Also, the half-maximal inhibitory concentration (IC50) in [5] came out at 14.9 µM; in [6] it was 9.1 µM. Besides, the “Ratio IC50” value with H9c2 [7] is reported as greater than 13; in the data set on H9c2 [8], greater than 21. In addition, the remaining at 10 h, 100 µM in [9] came out at 85%. Also, in the data set with H9c2 [14], the “Ratio IC50/EC50” value came out at 8.

As for `CC/C(=N\NC(=O)c1cnccn1)c1ccccc1O`, the figures for the Activity (in data set [1]; with MCF7 [2]; in data set [10]) were 84 to 109%, 50% and 10 to 44%, respectively. The compound further displayed an inhibition at 25 µM in the data set with MCF7 [3] of 17 to 61%. In [4], the half-maximal inhibitory concentration (IC50) at 72 h was greater than 100 µM. For the same compound, the IC50 in [5] stood at 27.3 µM; in data set [6], 27 µM. Further, the “Ratio IC50” value in the data set on H9c2 [7] and in the data set with H9c2 [8] was greater than 4 throughout.

For the compound `CN(C)C(=S)NN=[14C](c1ccccn1)c1ccccn1`, binding in data set [15] was put at a Kd of 2.45 µM.

For `C/C(=N\NC(=O)c1cccnc1)c1ccccc1O`, the Activity in data set [1] was 97 to 107%; in the data set on MCF7 [2] it was 54 - 57%; in [10], 10 to 44%. The compound also yielded an inhibition at 25 µM in the data set on MCF7 [3] of 17 to 61%. Further, in data set [4], the IC50 at 72 h came out at 6.8 µM. In addition, the half-maximal inhibitory concentration (IC50) stood at 8.3 µM in data set [5] and 7.5 µM in [6]. Moreover, the “Ratio IC50” value with H9c2 [7] came out at 0.8; in the data set with H9c2 [8] it was 0.9.

Consider `C/C(=N\NC(=O)c1cnccn1)c1ccccc1O`, for which the Activity was 97 to 107% in data set [1], 42% with MCF7 [2] and 10 to 44% in [10]. Further, the inhibition at 25 µM in the data set with MCF7 [3] lay in the range of 17 to 61%. Further, the IC50 at 72 h in data set [4] was determined as 41.2 µM. In addition, the figures for the IC50 in data set [5] and in data set [6] were 22.4 µM and 22.3 µM, respectively. Moreover, the “Ratio IC50” value in the data set on H9c2 [7] was 1.8; with H9c2 [8], 1.9.

For the compound `C/C(=N\NC(=O)c1cccc2ccccc12)c1ccccc1O`, the Activity in data set [1] is on record as 79%; in the data set with MCF7 [2] it was 54 - 57%. Besides, the inhibition at 25 µM in the data set on MCF7 [3] lay in the range of 17 to 61%. The concentration for half-maximal inhibition (IC50) at 72 h in data set [4] was greater than 200 µM. In addition, the IC50 stood at 3.8 µM in [5] and 3.9 µM in data set [6]. For the same compound, the “Ratio IC50” value in the data set with H9c2 [7] and in the data set with H9c2 [8] was greater than 52 each time. Also, in data set [9], the remaining at 10 h, 100 µM was 95%.

Take `CC/C(=N\NC(=O)c1ccncc1)c1ccccc1O`: the half-inhibitory concentration (IC50) in [5] was determined as 34.7 µM. Further, in the data set on H9c2 [12], the concentration for a half-maximal effect (EC50) amounted to 17.8 µM. Besides, the remaining at 10 h, 100 µM in data set [9] worked out at 41%.

Consider `O=C(N/N=C/c1c(O)ccc2ccccc12)c1ccncc1`, for which the IC50 worked out at 0.5 µM in data set [16], 5.4 µM in data set [17] and 20.1 µM in data set [18]. The “Ratio IC50” value in the data set with SK-N-MC is 40; in data set [19], 11.

Consider `C/C(=N\NC(=O)c1ccc(-c2ccccc2)cc1)c1ccccc1O`, for which the results for the Activity (in data set [1]; in the data set with MCF7 [2]) were 7% and 41%, respectively. Moreover, in the data set on MCF7 [3], the inhibition at 25 µM fell in the range of 17 to 61%. Further, the IC50 at 72 h in data set [4] was greater than 100 µM. Besides, the IC50 is 4.6 µM in data set [5] and 2.7 µM in [6]. Also, the “Ratio IC50” value is greater than 22 in the data set with H9c2 [7] and greater than 37 in the data set with H9c2 [8]. Also, the remaining at 10 h, 100 µM in data set [9] was determined as 90%.

For the compound `CC(=O)N(O)CCCCCNC(=O)CCC(=O)N(O)CCCCCNC(=O)CCC(=O)N(O)CCCCCN` [DEFEROXAMINE], the figures for the Activity in data set [10] and in [20] were 16% and 93%, respectively.

Regarding `O=C(N/N=C/c1ccccc1O)c1ccncc1` [SALINAZID], the Activity in the data set on MCF7 [2] is 58%; in data set [10] it was 7%. Moreover, the inhibition at 25 µM in the data set on MCF7 [3] was 15%. Further, the IC50 at 72 h in data set [4] is 28.9 µM. In addition, the half-maximal inhibitory concentration (IC50) in data set [5] stood at 12.4 µM; in [6], 5.7 µM. For the same compound, the “Ratio IC50” value in the data set with H9c2 [7] is 2.3; with H9c2 [8], 5.1. Moreover, the concentration giving a half-maximal response (EC50) with H9c2 [12] is 18.2 µM.

Turning to `CC/C(=N\NC(=O)c1cccc2ccccc12)c1ccccc1O`, the Activity is 84 to 109% in data set [1] and 50 - 56% with MCF7 [2]. Also, in the data set with MCF7 [3], the inhibition at 25 µM was in the range of 17 to 61%. Also, the half-maximal inhibitory concentration (IC50) at 72 h in [4] was greater than 200 µM. For the same compound, the IC50 in data set [5] and in data set [6] was 3.5 µM in each case. Further, the “Ratio IC50” value with H9c2 [7] and in the data set on H9c2 [8] was greater than 57 each time. For the same compound, the remaining at 10 h, 100 µM in data set [9] was found to be 76%.

As for `C/C(=N\NC(=O)c1ccnnc1)c1ccccc1O`, the Activity in [1] is 97 to 107%; in the data set with MCF7 [2] it was 54 - 57%; in [10], 10 to 44%. Besides, the inhibition at 25 µM with MCF7 [3] was in the range of 17 to 61%. In addition, in the data set on H9c2 [11], the EC50 was found to be 55.3 µM. In addition, the IC50 at 72 h in data set [4] was found to be 22.8 µM. For the same compound, the IC50 in [5] turned out to be 7.6 µM; in data set [6], 6.4 µM. Also, the “Ratio IC50” value in the data set with H9c2 [7] was determined as 3; in the data set on H9c2 [8], 3.6.

As a reminder, the inhibition is the drop in the measured response relative to a control, in per cent. Low values mean a weak effect, high ones a strong effect. Usually IC50 stands for the concentration that inhibits the measured activity by half. As usually defined, the EC50 is the midpoint of the concentration-response curve. A word on the Kd: it is the concentration at which binding is half-saturated. Read a low Kd as a tighter complex.
